How the values were obtained:
[1] = system: human osteosarcoma cell line SJSA-1; test: Inhibition of proliferation of human osteosarcoma cell line SJSA-1 (DAPI staining, In Cell Analyzer); conditions: for IC50: Homo sapiens, SJSA-1, 72 h, read-out: IC50 (nM), inhibitory activity on proliferation of human osteosarcoma cell line SJSA-1, SJSA-1, incubated 72 h; for inhibitory effect on human osteosarcoma cell line SJSA-1 compared with positive control compound HDM201: labels are Example numbers, the compounds with S-configuration are meant
Experimental: 2.2 Experiment Preparation:
2.2.1 Preparation of a culture medium for human osteosarcoma cell line SJSA-1: RPMI1640+10% FBS+1% penicillin/streptomycin
2.2.2 Preparation of a test compound solution:
a. the test compound solution with a certain concentration was taken, and diluted with the culture medium to obtain a compound solution with a final concentration of 20 μM;
b. 200 μL of a culture medium containing 0.2% DMSO (dimethyl sulfoxide) was added into H2-H10 of a 96-well plate; 300 μl of the above solution was added into H1; and
c. 100 μL was taken out from well H1, added into H2, and mixed well; then 100 μl of the resultant solution was taken and added into H3, and dilution was carried out in sequence until H9 to obtain the 3-fold serial dilution of the test compound.
2.3 Experimental Process:
2.3.1 SJSA-1 cells were inoculated into a 96-well cell plate with black transparent bottom at 4000 cells/100 μl/well, and cultured overnight at 37° C.;
2.3.3 Fixation: the cell plate was taken out, the culture medium was removed, and 50 μL of 4% paraformaldehyde solution was added to each well to fix for 10 min;
2.3.4 50 μl of 0.1 M glycine was added to neutralize for 10 min;
2.3.5 Washing was performed with 1×PBS (phosphate buffer solution pH7.2) twice;
2.3.6 Permeabilization: 50 μL of 0.2% TritonX-100 (Triton) was added per well, and permeabilization was carried out at room temperature for 10 min;
2.3.7 Washing was performed with 1×PBS (phosphate buffer solution pH7.2) twice;
2.3.9 Washing was performed with 1×PBS (phosphate buffer solution pH7.2) for three times; and
2.3.10 Scanning and analysis were performed by In cell analyzer.
The inhibition rate of each compound at each concentration point was calculated according to the following formula, and curve fitting was performed by GraphPad Prism 6.0 software to obtain the IC50 value.

[2] = target: T1, MDM2 (Homo sapiens, UniProt Q00987); test: Inhibition test of MDM2-P53 (GST-MDM2, Biotin-P53, Anti-GST-Tb, SA-XL665); format: binding; conditions: for inhibitory effect on MDM2 compared with positive control compound HDM201: labels are Example numbers, the compounds with S-configuration are meant
T1 construct: made in house
In short: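 Compounds, serially diluted 5-fold (twelve concentrations), were shaken for 90 min at 25° C with a mix of GST-MDM2 (4 nM final), Biotin-P53, anti-GST-Tb and SA-XL665. Buffer: 1×PBS, 0.1% BSA, 5 mM DTT, 1 mM AEBSF; signal read on a microplate reader.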

T1 sequence (Q00987 whole entry): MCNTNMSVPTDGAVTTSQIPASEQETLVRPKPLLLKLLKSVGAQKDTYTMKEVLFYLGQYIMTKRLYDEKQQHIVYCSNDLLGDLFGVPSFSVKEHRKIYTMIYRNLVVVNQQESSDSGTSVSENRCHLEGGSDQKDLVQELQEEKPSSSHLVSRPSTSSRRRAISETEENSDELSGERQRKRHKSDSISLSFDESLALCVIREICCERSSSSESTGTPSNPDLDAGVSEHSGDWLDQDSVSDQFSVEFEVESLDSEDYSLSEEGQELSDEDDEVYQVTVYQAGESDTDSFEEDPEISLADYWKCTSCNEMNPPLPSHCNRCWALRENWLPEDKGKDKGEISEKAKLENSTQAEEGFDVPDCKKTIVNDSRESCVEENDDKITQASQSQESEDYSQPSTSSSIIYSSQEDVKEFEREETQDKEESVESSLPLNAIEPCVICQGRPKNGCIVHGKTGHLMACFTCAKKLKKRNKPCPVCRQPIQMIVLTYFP

| Structure (SMILES) | IC50 [1] | IC50 [2] | inhibitory effect on human osteosarcoma cell line SJSA-1 compared with positive control compound HDM201 [1] | inhibitory effect on MDM2 compared with positive control compound HDM201 [2] |
| --- | --- | --- | --- | --- |
| CCN(C)c1ccc(-c2nc3c(n2C(C)C)[C@]2(C(=O)Nc4cc(Cl)ccc42)N(c2cc(Cl)ccc2C)C3=O)c(OC)c1 [Example R-99, (R)-6-chloro-5′-(5-chloro-2-methylphenyl)-2′-(4-(ethyl(methyl)amino)-2-methoxyphenyl)-3′-isopropyl-3′H-spiro[dihydroindole-3,4′-pyrrolo[3,4-d]imidazole]-2,6′(5′H)-dione] | 1470 nM | 115 nM |  |  |
| COc1cc(N(C)C)c(C)cc1-c1nc2c(n1C(C)C)[C@@]1(C(=O)Nc3cc(Cl)ccc31)N(c1cc(Cl)ccc1C)C2=O [Example S-91, (S)-6-chloro-5′-(5-chloro-2-methylphenyl)-2′-(4-(dimethylamino)-2-methoxy-5-methylphenyl)-3′-isopropyl-3′H-spiro[dihydroindole-3,4′-pyrrolo[3,4-d]imidazole]-2,6′(5′H)-dione] | 14.4 nM | 3.56 nM |  |  |
| CCOc1ncc(-c2nc3c(n2C(C)C)[C@]2(C(=O)Nc4cc(Cl)ccc42)N(c2cc(F)cc(Cl)c2)C3=O)c(OC)n1 [Example R-180, (R)-6-chloro-5′-(3-chloro-5-fluorophenyl)-2′-(2-ethoxy-4-methoxypyrimidin-5-yl)-3′-isopropyl-3′H-spiro[dihydroindole-3,4′-pyrrolo[3,4-d]imidazole]-2,6′(5′H)-dione] | 2170 nM | 679 nM |  |  |
| COc1ncc(-c2nc3c(n2C(C)C)[C@@]2(C(=O)Nc4cc(Cl)ccc42)N(c2ccc(OC(F)(F)F)c(Cl)c2)C3=O)c(OC)n1 [Example S-161, (S)-6-chloro-5′-(3-chloro-4-(trifluoromethoxy)phenyl)-2′-(2,4-dimethoxypyrimidin-5-yl)-3′-isopropyl-3′H-spiro[dihydroindole-3,4′-pyrrolo[3,4-d]imidazole]-2,6′(5′H)-dione] | 557 nM | 8.09 nM |  |  |
| CCOc1ncc(-c2nc3c(n2C(C)C)[C@]2(C(=O)Nc4cc(Cl)ccc42)N(c2cc(Cl)ccc2F)C3=O)c(OC)n1 [Example R-97, (R)-6-chloro-5′-(5-chloro-2-fluorophenyl)-2′-(2-ethoxy-4-methoxypyrimidin-5-yl)-3′-isopropyl-3′H-spiro[dihydroindole-3,4′-pyrrolo[3,4-d]imidazole]-2,6′(5′H)-dione] | 396 nM | 5.73 nM |  |  |
| COc1ccc(N2C(=O)c3nc(-c4ccc(N)cc4OC)n(C(C)C)c3[C@]23C(=O)Nc2cc(Cl)ccc23)cc1Cl [Example R-71, (R)-2′-(4-amino-2-methoxyphenyl)-6-chloro-5′-(3-chloro-4-methoxyphenyl)-3′-isopropyl-3′H-spiro[dihydroindole-3,4′-pyrrolo[3,4-d]imidazole]-2,6′(5′H)-dione] | 7020 nM | 100 nM |  |  |
| CCc1ccc(-c2nc3c(n2C(C)C)[C@@]2(C(=O)Nc4cc(Cl)ccc42)N(c2cccc(Cl)c2)C3=O)c(OC)c1 [Example S-107, (S)-6-chloro-5′-(3-chlorophenyl)-2′-(4-ethyl-2-methoxyphenyl)-3′-isopropyl-3′H-spiro[dihydroindole-3,4′-pyrrolo[3,4-d]imidazole]-2,6′(5′H)-dione] | 115 nM | 4.55 nM |  |  |
| COc1cnccc1-c1nc2c(n1C(C)C)[C@@]1(C(=O)Nc3cc(Cl)ccc31)N(c1cc(Cl)ccc1C)C2=O [Example S-10, (S)-6-chloro-5′-(5-chloro-2-methylphenyl)-3′-isopropyl-2′-(3-methoxypyridin-4-yl)-3′H-spiro[dihydroindole-3,4′-pyrrolo[3,4-d]imidazole]-2,6′(5′H)-dione] | 124 nM | 2.77 nM |  |  |
| COc1cc(C(C)C)ccc1-c1nc2c(n1C(C)C)[C@@]1(C(=O)Nc3cc(Cl)ccc31)N(c1cc(Cl)cnc1C)C2=O [Example S-89, (S)-6-chloro-5′-(5-chloro-2-methylpyridin-3-yl)-3′-isopropyl-2′-(4-isopropyl-2-methoxyphenyl)-3′H-spiro[dihydroindole-3,4′-pyrrolo[3,4-d]imidazole]-2,6′(5′H)-dione] | 43.2 nM | 4.32 nM |  |  |
| COc1cc(C2CC2)ncc1-c1nc2c(n1C(C)C)[C@@]1(C(=O)Nc3cc(Cl)ccc31)N(c1cccc(Cl)c1)C2=O [Example S-106, (S)-6-chloro-5′-(3-chlorophenyl)-2′-(6-cyclopropyl-4-methoxypyridin-3-yl)-3′-isopropyl-3′H-spiro[dihydroindole-3,4′-pyrrolo[3,4-d]imidazole]-2,6′(5′H)-dione] | 33.5 nM | 2.59 nM |  |  |
| COc1cc(OCCF)ncc1-c1nc2c(n1C(C)C)[C@@]1(C(=O)Nc3cc(Cl)ccc31)N(c1cc(Cl)cnc1C)C2=O [Example S-173, (S)-6-chloro-5′-(5-chloro-2-methylpyridin-3-yl)-2′-(6-(2-fluoroethoxy)-4-methoxypyridin-3-yl)-3′-isopropyl-3′H-spiro[dihydroindole-3,4′-pyrrolo[3,4-d]imidazole]-2,6′(5′H)-dione] | 217 nM | 1.39 nM |  |  |
| COc1ccc(C(=O)O)cc1-c1nc2c(n1C(C)C)C1(C(=O)Nc3cc(Cl)ccc31)N(c1cc(Cl)ccc1C)C2=O (centres unmarked) [Example 84, 3-(6-chloro-5′-(5-chloro-2-methylphenyl)-3′-isopropyl-2,6′-dioxo-5′,6′-dihydro-3′H-spiro[dihydroindole-3,4′-pyrrolo[3,4-d]imidazole]-2′-yl)-4-methoxybenzoic acid] | 2610 nM | 3.78 nM |  |  |
| Cc1ccc(Cl)cc1N1C(=O)c2nc(-c3ccccc3OC(C)C)n(C(C)C)c2[C@@]12C(=O)Nc1cc(Cl)ccc12 [Example S-34, (S)-6-chloro-5′-(5-chloro-2-methylphenyl)-2′-(2-isopropoxyphenyl)-3′-isopropyl-3′H-spiro[dihydroindole-3,4′-pyrrolo[3,4-d]imidazole]-2,6′(5′H)-dione] | 619 nM | 139 nM |  |  |
| COc1cc(N)c(C)cc1-c1nc2c(n1C(C)C)C1(C(=O)Nc3cc(Cl)ccc31)N(c1cc(Cl)ccc1C)C2=O (centres unmarked) [Example 74, 2′-(4-amino-2-methoxy-5-methylphenyl)-6-chloro-5′-(5-chloro-2-methylphenyl)-3′-isopropyl-3′H-spiro[dihydroindole-3,4′-pyrrolo[3,4-d]imidazole]-2,6′(5′H)-dione] |  |  | better | better |
| COc1ncc(-c2nc3c(n2C2CC2)[C@@]2(C(=O)Nc4cc(Cl)ccc42)N(c2cc(Cl)ccc2C)C3=O)c(OC)n1 [Example S-28, (S)-6-chloro-5′-(5-chloro-2-methylphenyl)-3′-cyclopropane-2′-(2,4-dimethoxypyrimidin-5-yl)-3′H-spiro[dihydroindole-3,4′-pyrrolo[3,4-d]imidazole]-2,6′(5′H)-dione] | 1290 nM | 54.3 nM |  |  |
| COc1cc(OC)c(-c2nc3c(n2C(C)C)[C@@]2(C(=O)Nc4cc(Cl)ccc42)N(c2cc(Cl)ccc2C)C3=O)cc1F [Example S-92, (S)-6-chloro-5′-(5-chloro-2-methylphenyl)-2′-(5-fluoro-2,4-dimethoxyphenyl)-3′-isopropyl-3′H-spiro[dihydroindole-3,4′-pyrrolo[3,4-d]imidazole]-2,6′(5′H)-dione] | 19.9 nM | 1.72 nM |  |  |
| COc1ncc(-c2nc3c(n2C(C)C)[C@@]2(C(=O)Nc4cc(Cl)ccc42)N(c2cc(Cl)ccc2OC)C3=O)c(OC)n1 [Example S-17, (S)-6-chloro-5′-(5-chloro-2-methoxyphenyl)-2′-(2,4-dimethoxypyrimidin-5-yl)-3′-isopropyl-3′H-spiro[dihydroindole-3,4′-pyrrolo[3,4-d]imidazole]-2,6′(5′H)-dione] | 201 nM | 3.75 nM |  |  |
| COc1cc(N)c(F)cc1-c1nc2c(n1C(C)C)C1(C(=O)Nc3cc(Cl)ccc31)N(c1cc(Cl)ccc1C)C2=O (centres unmarked) [Example 75, 2′-(4-amino-5-fluoro-2-methoxyphenyl)-6-chloro-5′-(5-chloro-2-methylphenyl)-3′-isopropyl-3′H-spiro[dihydroindole-3,4′-pyrrolo[3,4-d]imidazole]-2,6′(5′H)-dione] |  |  | better | better |
| COc1ccc(N2C(=O)c3nc(-c4ccccc4OC)n(C(C)C)c3[C@@]23C(=O)Nc2cc(Cl)ccc23)cc1Cl [Example S-63, (S)-6-chloro-5′-(3-chloro-4-methoxyphenyl)-3′-isopropyl-2′-(2-methoxyphenyl)-3′H-spiro[dihydroindole-3,4′-pyrrolo[3,4-d]imidazole]-2,6′(5′H)-dione] | 77.6 nM | 1.16 nM |  |  |
| CCOc1ccc(-c2nc3c(n2C(C)C)[C@@]2(C(=O)Nc4cc(Cl)ccc42)N(c2cc(Cl)ccc2F)C3=O)c(OC)c1 [Example S-94, (S)-6-chloro-5′-(5-chloro-2-fluorophenyl)-2′-(4-ethoxy-2-methoxyphenyl)-3′-isopropyl-3′H-spiro[dihydroindole-3,4′-pyrrolo[3,4-d]imidazole]-2,6′(5′H)-dione] | 309 nM | 4.72 nM |  |  |
| COc1cc(N(C)C)c(F)cc1-c1nc2c(n1C(C)C)[C@@]1(C(=O)Nc3cc(Cl)ccc31)N(c1cc(Cl)ccc1C)C2=O [Example S-78] | 7.88 nM | 1.42 nM |  |  |
| COc1nc(OC(C)C)ncc1-c1nc2c(n1C(C)C)[C@@]1(C(=O)Nc3cc(Cl)ccc31)N(c1cccc(Cl)c1)C2=O [Example S-124, (S)-6-chloro-5′-(3-chlorophenyl)-2′-(2-isopropoxy-4-methoxypyrimidin-5-yl)-3′-isopropyl-3′H-spiro[dihydroindole-3,4′-pyrrolo[3,4-d]imidazole]-2,6′(5′H)-dione] | 129 nM | 2.91 nM |  |  |

From US11339171B2, “MDM2 inhibitors” (Gan & Lee Pharmaceuticals, priority 2017, dated 2022)
